Reference: patent publication US20250195521A1 (Revolution Medicines, Inc., priority 2020, published 2025)
Read-outs that look alike come from different tables or passages of the source.

Key:
KRAS G13D = KRAS G13D (Homo sapiens (Human), UniProt P01116+P62937, G13D); experiment: Ras-Raf disruption/FRET/MOA assay, KRAS G13D; format: biochemical
From the text: (§1) Disruption of B-Raf Ras-Binding Domain (BRAF^RBD) Interaction with K-Ras by Compounds of the Invention (Also Called a FRET Assay or an MOA Assay)
(§2) Note—The following protocol describes a procedure for monitoring disruption of K-Ras G12C (GMP-PNP) binding to BRAF^RBD by a compound of the invention. This protocol may also be executed substituting other Ras proteins or nucleotides, such as K-Ras G12D and K-Ras G13D.
(§3) The purpose of this biochemical assay was to measure the ability of test compounds to facilitate ternary complex formation between a nucleotide-loaded K-Ras isoform and Cyclophilin A; the resulting ternary complex disrupts binding to a BRAF^RBD construct, inhibiting K-Ras signaling through a RAF effector. Data is reported as IC50 values.
(§4) In assay buffer containing 25 mM HEPES pH 7.3, 0.002% Tween20, 0.1% BSA, 100 mM NaCl and 5 mM MgCl2, tagless Cyclophilin A, His6-K-Ras-GMPPNP, and GST-BRAF^RBD were combined in a 384-well assay plate at final concentrations of 25 μM, 12.5 nM, and 50 nM, respectively. Compound was present in plate wells as a 10-point 3-fold dilution series starting at a final concentration of 30 μM. After incubation at 25° C. for 3 hours, a mixture of anti-His Eu—W1024 and anti-GST allophycocyanin was then added to assay sample wells at final concentrations of 10 nM and 50 nM, respectively, and the reaction incubated for an additional 1.5 hours. […] Compounds that facilitate disruption of a K-Ras: RAF complex were identified as those eliciting a decrease in the TR-FRET ratio relative to DMSO control wells.

KRAS G12C = KRAS G12C (Homo sapiens (Human), UniProt P01116+P62937, G12C); experiment: Ras-Raf disruption/FRET/MOA assay, KRAS G12C; format: biochemical
From the text: as §1, §2, §3, §4

NRAS G12C = NRAS G12C (Homo sapiens (Human), UniProt P01111+P62937, G12C); experiment: Ras-Raf disruption/FRET/MOA assay, NRAS G12C; format: biochemical
From the text: as §1, §2, §3, §4

KRAS G12D = KRAS G12D (Homo sapiens (Human), UniProt P01116+P62937, G12D); experiment: Ras-Raf disruption/FRET/MOA assay, KRAS G12D; format: biochemical
From the text: as §1, §2, §3, §4

AsPC-1 (K-Ras G12D) [1] = experiment: Potency assay: pERK; format: cell-based, human; conditions: Homo sapiens, ASPC1, read-out: pERK EC50
Method in brief: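 Cells plated overnight, then exposed 4 h at 37 °C to 10-point 3-fold dilutions of compound, in duplicate. pERK read by AlphaLISA SureFire Ultra p-ERK1/2 lysate assay or by In-Cell Western (pERK antibody, DRAQ5 DNA normalisation). IC50 from 4-parameter sigmoidal fit of signal vs log concentration.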

KRAS G12S = KRAS G12S (Homo sapiens (Human), UniProt P01116+P62937, G12S); experiment: Ras-Raf disruption/FRET/MOA assay, KRAS G12S; format: biochemical
From the text: as §1, §2, §3, §4

AsPC-1 (K-Ras G12D) [2] = experiment: CellTiter-Glo cell viability assay, AsPC-1; format: cell-based, human; conditions: Homo sapiens, ASPC1, 120 h, read-out: AsPC-1 Cell Viability IC50
Method in brief: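 Compounds dispensed directly onto seeded K-Ras mutant cells; plates read on day 5 after ~30 min equilibration to room temperature, by CellTiter-Glo luminescence. Signal normalized as (sample/mean DMSO)×100, then fitted to a four-parameter logistic curve.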

KRAS G13C = KRAS G13C (Homo sapiens (Human), UniProt P01116+P62937, G13C); experiment: Ras-Raf disruption/FRET/MOA assay, KRAS G13C; format: biochemical
From the text: as §1, §2, §3, §4

KRAS WT = KRAS WT (Homo sapiens (Human), UniProt P01116+P62937); experiment: Ras-Raf disruption/FRET/MOA assay, KRAS WT; format: biochemical
From the text: as §1, §2, §3, §4

KRAS G12V = KRAS G12V (Homo sapiens (Human), UniProt P01116+P62937, G12V); experiment: Ras-Raf disruption/FRET/MOA assay, KRAS G12V; format: biochemical
From the text: as §1, §2, §3, §4

[3] = read-out: KRAS G12C FRET data IC50
[4] = read-out: NRAS G12C FRET data IC50

Chain of KRAS G12S (P01116 other isoform, or with tags, fused parts or gaps G12S): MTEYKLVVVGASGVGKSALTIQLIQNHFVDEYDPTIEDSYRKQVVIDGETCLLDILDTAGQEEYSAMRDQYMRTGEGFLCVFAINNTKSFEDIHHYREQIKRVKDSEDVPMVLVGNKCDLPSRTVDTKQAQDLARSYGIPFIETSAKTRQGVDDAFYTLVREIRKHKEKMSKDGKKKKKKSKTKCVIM
Chain of KRAS G12S (P62937 whole entry): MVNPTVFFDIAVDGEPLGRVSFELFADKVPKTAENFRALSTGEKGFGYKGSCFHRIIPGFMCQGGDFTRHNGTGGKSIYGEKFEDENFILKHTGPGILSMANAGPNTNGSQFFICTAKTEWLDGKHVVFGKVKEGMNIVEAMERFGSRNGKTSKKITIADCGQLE
Chain of KRAS G12V (P01116 other isoform, or with tags, fused parts or gaps G12V): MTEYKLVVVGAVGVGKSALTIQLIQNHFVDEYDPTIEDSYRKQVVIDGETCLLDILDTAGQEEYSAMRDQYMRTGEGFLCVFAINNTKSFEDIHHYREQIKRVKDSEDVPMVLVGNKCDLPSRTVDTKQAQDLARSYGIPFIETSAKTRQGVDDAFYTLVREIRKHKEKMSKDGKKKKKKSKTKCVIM
Chain of KRAS G12V (P62937 whole entry): as the sequence (P62937 whole entry) above
Chain of KRAS G13D (P01116 other isoform, or with tags, fused parts or gaps G13D): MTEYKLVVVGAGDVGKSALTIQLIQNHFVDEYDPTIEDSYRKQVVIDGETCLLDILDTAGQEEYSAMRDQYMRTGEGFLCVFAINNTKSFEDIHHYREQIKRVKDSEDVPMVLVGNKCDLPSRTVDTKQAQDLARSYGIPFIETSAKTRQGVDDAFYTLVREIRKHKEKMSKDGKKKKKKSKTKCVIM
Chain of KRAS G13D (P62937 whole entry, the tested form may be a part): as the sequence (P62937 whole entry) above
Chain of KRAS WT (P01116 other isoform, or with tags, fused parts or gaps): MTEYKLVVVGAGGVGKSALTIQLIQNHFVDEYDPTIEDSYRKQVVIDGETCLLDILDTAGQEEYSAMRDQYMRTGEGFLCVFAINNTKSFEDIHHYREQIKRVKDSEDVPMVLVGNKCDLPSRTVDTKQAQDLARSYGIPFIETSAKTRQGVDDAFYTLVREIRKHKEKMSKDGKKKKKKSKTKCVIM
Chain of KRAS WT (P62937 whole entry): as the sequence (P62937 whole entry) above
Chain of KRAS G13C (P01116 other isoform, or with tags, fused parts or gaps G13C): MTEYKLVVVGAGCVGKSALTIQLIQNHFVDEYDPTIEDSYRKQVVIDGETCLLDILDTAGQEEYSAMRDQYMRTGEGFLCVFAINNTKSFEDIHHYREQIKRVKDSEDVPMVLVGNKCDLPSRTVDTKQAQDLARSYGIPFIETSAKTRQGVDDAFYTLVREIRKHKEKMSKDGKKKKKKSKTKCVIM
Chain of KRAS G13C (P62937 whole entry): as the sequence (P62937 whole entry) above
Chain of KRAS G12C (P01116-2 other isoform, or with tags, fused parts or gaps G12C): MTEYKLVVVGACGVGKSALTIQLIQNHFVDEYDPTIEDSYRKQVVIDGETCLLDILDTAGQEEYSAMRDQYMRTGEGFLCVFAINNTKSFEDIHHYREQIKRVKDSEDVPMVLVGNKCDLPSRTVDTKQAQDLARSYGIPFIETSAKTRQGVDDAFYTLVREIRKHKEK
Chain of KRAS G12C (P62937 whole entry): as the sequence (P62937 whole entry) above
Chain of NRAS G12C (P01111 whole entry G12C): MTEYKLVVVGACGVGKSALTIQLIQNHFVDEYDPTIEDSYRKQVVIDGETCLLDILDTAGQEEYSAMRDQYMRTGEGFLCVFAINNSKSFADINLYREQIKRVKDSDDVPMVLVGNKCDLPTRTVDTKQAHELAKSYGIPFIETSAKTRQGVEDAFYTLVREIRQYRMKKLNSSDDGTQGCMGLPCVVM
Chain of NRAS G12C (P62937 whole entry): as the sequence (P62937 whole entry) above
Chain of KRAS G12D (P01116 other isoform, or with tags, fused parts or gaps G12D): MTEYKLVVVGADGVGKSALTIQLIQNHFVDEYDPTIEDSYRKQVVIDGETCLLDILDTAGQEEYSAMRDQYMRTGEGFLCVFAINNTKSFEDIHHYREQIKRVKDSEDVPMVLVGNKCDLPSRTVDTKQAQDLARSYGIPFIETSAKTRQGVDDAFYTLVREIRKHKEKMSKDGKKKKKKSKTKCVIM
Chain of KRAS G12D (P62937 whole entry): as the sequence (P62937 whole entry) above

| Structure (SMILES) | IC50 (KRAS G13D; read-out: KRAS G13D FRET IC50) | IC50 (KRAS G12C; [3]) | IC50 (NRAS G12C; [4]) | IC50 (KRAS G12D; read-out: KRAS G12D FRET IC50) | IC50 (KRAS G12S; read-out: KRAS G12S FRET IC50) | IC50 (KRAS G13C; read-out: KRAS G13C FRET IC50) | IC50 (KRAS WT; read-out: KRAS WT FRET IC50) | IC50 (KRAS G12V; read-out: KRAS G12V FRET IC50) | IC50 (KRAS G13D) | IC50 (KRAS G12C) | IC50 (NRAS G12C) | IC50 (KRAS G12D) | EC50 (AsPC-1 (K-Ras G12D) [1]) | IC50 (KRAS G12S) | IC50 (AsPC-1 (K-Ras G12D) [2]) | IC50 (KRAS G13C) | IC50 (KRAS WT) | IC50 (KRAS G12V) |
| --- | --- | --- | --- | --- | --- | --- | --- | --- | --- | --- | --- | --- | --- | --- | --- | --- | --- | --- |
| CCn1c(-c2cnccc2COC)c2c3cc(ccc31)-c1cc(O)cc(c1)C[C@H](NC(=O)[C@H](C(C)C)N(C)C(=O)CN(C)C(=O)[C@H]1N[C@H]1C(=O)OC)C(=O)N1CCC[C@H](N1)C(=O)OCC(C)(C)C2 [Example 51] |  |  |  |  |  |  |  |  | 0.1 to 1 µM | 0.01 to 0.1 µM | 0.1 to 1 µM | 0.1 to 1 µM | < 5 µM | 0.1 to 1 µM | > 10 µM | 0.01 to 0.1 µM | 0.1 to 1 µM | 0.1 to 1 µM |
| CCn1c(-c2cnccc2COC)c2c3cc(ccc31)-c1cccc(c1)C[C@H](NC(=O)[C@H](C(C)C)N(C)C(=O)CCN=C=Nc1ccc(N3CCOCC3)cc1)C(=O)N1CCC[C@H](N1)C(=O)OCC(C)(C)C2 [Example 67] | 1 to 10 µM | 0.1 to 1 µM | 0.1 to 1 µM | 1 to 10 µM | 1 to 10 µM | 1 to 10 µM | 1 to 10 µM | 1 to 10 µM |  |  |  |  |  |  |  |  |  |  |
| CCn1c(-c2cnccc2COC)c2c3cc(ccc31)-c1cc(O)cc(c1)C[C@H](NC(=O)[C@H](C(C)C)N(C)C(=O)CN(C)C(=O)[C@H]1N[C@H]1c1ccc(OC)cc1)C(=O)N1CCC[C@H](N1)C(=O)OCC(C)(C)C2 [Example 93] |  |  |  |  |  |  |  |  | 0.1 to 1 µM | 0.01 to 0.1 µM | 0.01 to 0.1 µM | 0.1 to 1 µM | < 5 µM | 0.01 to 0.1 µM | > 10 µM | 0.01 to 0.1 µM | 0.01 to 0.1 µM | 0.01 to 0.1 µM |

Further lines, with some results ahead:

| IC50 (KRAS G13D; read-out: KRAS G13D FRET IC50) | IC50 (KRAS G12C; [3]) | IC50 (NRAS G12C; [4]) | IC50 (KRAS G12D; read-out: KRAS G12D FRET IC50) | IC50 (KRAS G12S; read-out: KRAS G12S FRET IC50) | IC50 (KRAS G13C; read-out: KRAS G13C FRET IC50) | IC50 (KRAS WT; read-out: KRAS WT FRET IC50) | IC50 (KRAS G12V; read-out: KRAS G12V FRET IC50) | Structure (SMILES) | IC50 (KRAS G13D) | IC50 (KRAS G12C) | IC50 (NRAS G12C) | IC50 (KRAS G12D) | EC50 (AsPC-1 (K-Ras G12D) [1]) | IC50 (KRAS G12S) | IC50 (AsPC-1 (K-Ras G12D) [2]) | IC50 (KRAS G13C) | IC50 (KRAS WT) | IC50 (KRAS G12V) |
| --- | --- | --- | --- | --- | --- | --- | --- | --- | --- | --- | --- | --- | --- | --- | --- | --- | --- | --- |
| 1 to 10 µM | 0.1 to 1 µM | 0.1 to 1 µM | 1 to 10 µM | 1 to 10 µM | 0.1 to 1 µM | 1 to 10 µM | 1 to 10 µM | CCn1c(-c2cnccc2COC)c2c3cc(ccc31)-c1cccc(c1)C[C@H](NC(=O)[C@H](C(C)C)N(C)C(=O)CCN=C=Nc1ccc(N(C)C)cc1)C(=O)N1CCC[C@H](N1)C(=O)OCC(C)(C)C2 [Example 66] |  |  |  |  |  |  |  |  |  |  |
| > 10 µM | 0.1 to 1 µM | 0.1 to 1 µM | > 10 µM | > 10 µM | > 10 µM | > 10 µM | 1 to 10 µM | CCn1c(-c2cnccc2COC)c2c3cc(ccc31)-c1cccc(c1)C[C@H](NC(=O)[C@H](C(C)C)N(C)C(=O)CCN=C=NCc1c(OC)cccc1OC)C(=O)N1CCC[C@H](N1)C(=O)OCC(C)(C)C2 [Example 75] |  |  |  |  |  |  |  |  |  |  |
| > 10 µM | 0.1 to 1 µM | 0.1 to 1 µM | 1 to 10 µM | 1 to 10 µM | 1 to 10 µM | 1 to 10 µM | 1 to 10 µM | CCn1c(-c2cnccc2COC)c2c3cc(ccc31)-c1cccc(c1)C[C@H](NC(=O)[C@H](C(C)C)N1CC[C@@H](CN=C=NCCOC)C1)C(=O)N1CCC[C@H](N1)C(=O)OCC(C)(C)C2 [Example 80] |  |  |  |  |  |  |  |  |  |  |
| > 10 µM | 0.1 to 1 µM | 1 to 10 µM | > 10 µM | > 10 µM | > 10 µM | > 10 µM | 1 to 10 µM | CCn1c(-c2cnccc2COC)c2c3cc(ccc31)-c1cccc(c1)C[C@H](NC(=O)[C@H](C(C)C)N1CC[C@H](CN=C=Nc3ccc(OC)cc3)C1)C(=O)N1CCC[C@H](N1)C(=O)OCC(C)(C)C2 [Example 81] |  |  |  |  |  |  |  |  |  |  |
